In ChEMBL document CHEMBL2073999, “Vectorial transport by double-transfected cells expressing the human uptake transporter SLC21A8 and the apical export pump ABCC2” (Mol Pharmacol, 2001) one finds Activity data, which are given here for six compounds.

This assay concerns MDCK-II. As to the kind of experiment: TP_TRANSPORTER: transepithelial transport in OATP1B3/MRP2 double transfectant (MDCKII). The class given is functional, cell-based.
In the case of `C[C@]12CC[C@@H]3c4ccc(O)cc4CC[C@H]3[C@@H]1CC[C@@H]2O[C@@H]1O[C@H](C(=O)O)[C@@H](O)[C@H](O)[C@H]1O`, the Activity entry was “substrate []”.

Consider `Cc1ccc(N(CC(=O)O)CC(=O)O)c(OCCOc2cc(-c3c4cc(Cl)c(=O)cc-4oc4cc(O)c(Cl)cc34)ccc2N(CC(=O)O)CC(=O)O)c1`, for which the Activity entry was “substrate []”.

As for `CCCCC/C=C\C\C=C/C=C/C=C/[C@@H](SC[C@@H](NC(=O)CC[C@H](N)C(=O)O)C(=O)NCC(=O)O)[C@@H](O)CCCC(=O)O`, the Activity entry is “substrate []”.

As to `CO[C@H]1/C=C/O[C@@]2(C)Oc3c(C)c(O)c4c(O)c(c(/C=N/N5CCN(C)CC5)c(O)c4c3C2=O)NC(=O)/C(C)=C\C=C\[C@H](C)[C@H](O)[C@@H](C)[C@@H](O)[C@@H](C)[C@H](OC(C)=O)[C@@H]1C`, the Activity result is “substrate []”.

As for `O=C1OC(c2ccc(O)c(S(=O)(=O)O)c2)(c2ccc(O)c(S(=O)(=O)O)c2)c2c(Br)c(Br)c(Br)c(Br)c21`, the Activity entry was “substrate []”.

As for `C[C@]12CC[C@H](OS(=O)(=O)O)CC1=CC[C@@H]1[C@@H]2CC[C@]2(C)C(=O)CC[C@@H]12`, the Activity result was “substrate []”.
